Measurements from patent US7618961B2, “Inhibitors of 11-beta-hydroxy steroid dehydrogenase type 1” (Biovitrum AB, priority 2000, dated 2009).

System: not given
Test: not given
Settings: not given

melting point [°C]	SMILES
197 to 198	Cc1c(Cl)cccc1S(=O)(=O)Nc1nc(CCN2CCOCC2)cs1.Cl [Example 204A, 3-Chloro-2-methyl-N-{4-[2-(4-morpholinyl)ethyl]-1,3thiazol-2-yl}benzenesulfonamide hydrochloride]

Target: T1, human 11-β-hydroxysteroid dehydrogenase type-1 enzyme (11-β-HSD1) (Homo sapiens, UniProt P28845)
T1 construct: made in house; host or cells: Pichia pastoris
T1 sequence (P28845 whole entry): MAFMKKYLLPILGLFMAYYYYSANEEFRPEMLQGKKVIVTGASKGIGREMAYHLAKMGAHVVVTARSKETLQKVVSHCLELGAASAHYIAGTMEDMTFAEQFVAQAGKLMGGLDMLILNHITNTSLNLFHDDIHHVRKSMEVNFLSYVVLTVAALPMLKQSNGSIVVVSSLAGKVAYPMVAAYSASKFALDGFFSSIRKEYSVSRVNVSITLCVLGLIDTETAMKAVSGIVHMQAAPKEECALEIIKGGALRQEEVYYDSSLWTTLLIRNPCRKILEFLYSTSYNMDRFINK
Test: Scintillation proximity assay: human 11-β-HSD1 enzyme assay
Assay type: biochemical
Settings: Ki calculated from IC50 (Cheng Prushoff)
From the text: [1, 2(n)-^3H]-cortisone was purchased from Amersham Pharmacia Biotech. Anti-cortisol monoclonal mouse antibody, clone 6D6.7 was obtained from Immunotech and Scintillation proximity assay (SPA) beads coated with monoclonal antimouse antibodies were from Amersham Pharmacia Biotech. NADPH, tetrasodium salt was from Calbiochem and glucose-6-phosphate (G-6-P) was supplied by Sigma. The human 11-β-hydroxysteroid dehydrogenase type-1 enzyme (11-β-HSD1) was expressed in Pichia pastoris. 18-β-glycyrrhetinic acid (GA) was obtained from Sigma. The serial dilutions of the compounds were performed on a Tecan Genesis RSP 150.
Compounds to be tested were dissolved in DMSO (1 mM) and diluted in 50 mM Tris-HCl, pH 7.2 containing 1 mM EDTA.
The multiplication of plates was done on a WallacQuadra. The amount of the product [^3H]-cortisol, bound to the beads was determined in a Packard, Top Count microplate liquid scintillation counter.
The 11-β-HSD1 enzyme assay was carried out in 96 well microtiter plates (Packard, Optiplate) in a total well volume of 220 μL and contained 30 mM Tris-HCl, pH 7.2 with 1 mM EDTA, a substrate mixture tritiated Cortisone/NADPH (175 nM/181 μM), G-6-P (1 mM) and inhibitors in serial dilutions (9 to 0.15 μM). Reactions were initiated by the addition of human 11-β-HSD1, either as Pichia pastoris cell homogenate or microsomes prepared from Pichia pastoris (the final amount of enzyme used was varied between 0.057 to 0.11 mg/mL). Following mixing, the plates were shaken for 30 to 45 minutes at room temperature. The reactions were terminated with 10 μL 1 mM GA stop solution. Monoclonal mouse antibody was then added (10 μL of 4 μM) followed by 100 μL of SPA beads (suspended according to the manufacturers instructions). Appropriate controls were set up by omitting the 11-β-HSD1 to obtain the non-specific binding (NSB) value.
The plates were covered with plastic film and incubated on a shaker for 30 minutes, at room temperature, before counting. The amount of [^3H]-cortisol, bound to the beads was determined in a microplate liquid scintillation counter.
The calculation of the Ki values for the inhibitors was performed by use of Activity Base. The Ki value is calculated from IC50 and the Km value is calculated using the Cheng Prushoff equation (with reversible inhibition that follows the Michaelis-Menten equation): […] [Cheng, Y. C.; Prushoff, W. H. Biochem. Pharmacol. 1973, 22, 3099-3108]. The IC50 is measured experimentally in an assay wherein the decrease of the turnover of cortisone to cortisol is dependent on the inhibition potential of each substance. The Ki values of the compounds of the present invention for the 11-β-HSD1 enzyme lie typically between about 10 nM and about 10 μM. Illustrative of the invention, the following Ki values have been determined in the human 11-β-HSD1 enzyme assay (see Table 1): […]

Ki [nM]	SMILES
32	CCOC(=O)Cc1csc(NS(=O)(=O)c2cc(C)c(Cl)cc2Cl)n1 [Example 1A, Ethyl (2-{[(2,4-dichloro-5-methylphenyl)sulfonyl]amino}-1,3-thiazol-4-yl)acetate]
51	O=C(Cc1csc(NS(=O)(=O)c2c(Cl)cc(Cl)cc2Cl)n1)N1CCOCC1 [Example 149A, 2,4,6-Trichloro-N-{4-[2-(4-morpholinyl)-2-oxoethyl]-1,3-thiazol-2-yl}benzenesulfonamide]
21	O=C(Cc1csc(NS(=O)(=O)c2ccc(-c3ccccc3)cc2)n1)N1CCOCC1 [Example 151A, N-{4-[2-(4-morpholinyl)-2-oxoethyl]-1,3-thiazol-2-yl}[1,1′-biphenyl]-4-sulfonamide]
14	CCCC(=O)Cc1csc(NS(=O)(=O)c2cccc(Cl)c2C)n1 [Example 179A, 3-Chloro-2-methyl-N-[4-(2-oxopentyl)-1,3-thiazol-2-yl]benzenesulfonamide]
53	Cc1c(Cl)cccc1S(=O)(=O)Nc1nc(CCO)cs1 [Example 181A, 3-Chloro-N-[4-(2-hydroxyethyl)-1,3-thiazol-2-yl]-2-methylbenzenesulfonamide]
299	Cc1c(Cl)cccc1S(=O)(=O)Nc1nc(CCOc2cccnc2)cs1 [Example 189A, 3-Chloro-2-methyl-N-{4-[2-(3-pyridinyloxy)ethyl]-1,3-thiazol-2-yl}benzenesulfonamide]
91	Cc1c(Cl)cccc1S(=O)(=O)Nc1nc(CCN2CCOCC2)cs1.Cl [Example 204A, 3-Chloro-2-methyl-N-{4-[2-(4-morpholinyl)ethyl]-1,3thiazol-2-yl}benzenesulfonamide hydrochloride]
